US20070190070A1, “Methods of using and compositions comprising selective cytokine inhibitory drugs for the treatment and management of disorders of the central nervous system” (priority 2004, published 2007)

Tests used:
[1] = Cardiovascular and respiratory function in anesthetized dogs; format: in vivo; conditions: anesthetized Beagle dogs; 400, 800 and 1,200 mg/kg/day via jugular vein infusion; compared to the vehicle control group
Method: The effects of 3-(3,4-dimethoxy-phenyl)-3-(1-oxo-1,3-dihydro-isoindol-2-yl)-propionamide on cardiovascular and respiratory function are investigated in anesthetized dogs. Two groups of Beagle dogs (2/sex/group) are used. One group receives three doses of vehicle only and the other receives three ascending doses of 3-(3,4-dimethoxy-phenyl)-3-(1-oxo-1,3-dihydro-isoindol-2-yl)-propionamide (400, 800, and 1,200 mg/kg/day). In all cases, doses of 3-(3,4-dimethoxy-phenyl)-3-(1-oxo-1,3-dihydro-isoindol-2-yl)-propionamide or vehicle are successively administered via infusion through the jugular vein separated by intervals of at least 30 minutes.

CBP^+/− mutant mice = conditions: cited from earlier work
[2] = tested on: C57BL/6 mice injected with MPTP; conditions: cited from earlier work
[3] = tested on: rat mesencephalonic neurons; conditions: in the presence of the adenylate cyclase activator forskolin; cited from earlier work
patients with PD = conditions: cited from earlier work

| SMILES | long-term memory defects (CBP^+/− mutant mice) | dopamine depletion in the striatum [2] | loss of tyrosine hydroxylase-immunopositive neurons in the substantia nigra [2] | uptake of dopamine [3] | further results |
| --- | --- | --- | --- | --- | --- |
| COc1ccc(C(CC(N)=O)N2Cc3ccccc3C2=O)cc1OC (centres unmarked) [3-(3,4-Dimethoxy-phenyl)-3-(1-oxo-1,3-dihydro-isoindol-2-yl)-propionamide] | – | – | – | – | cardiovascular and respiratory changes [1]: minimal at all doses |
| COc1ccc([C@H]2CNC(=O)[C@H](Cc3cccc(C)c3)C2)cc1OC1CCCC1 [HT0712] | abolished the long-term memory defects | – | – | – | – |
| CCCCOc1cc(CC2CNC(=O)N2)ccc1OC (centres unmarked) [Ro-20 1724] | – | reduce dopamine depletion in the striatum | reduce loss of tyrosine hydroxylase-immunopositive neurons | stimulate uptake of dopamine | – |
| COc1ccc(C2CNC(=O)C2)cc1OC1CCCC1 (centres unmarked) [Rolipram] | abolished the long-term memory defects | – | – | – | deterioration of the therapeutic action of dopamine against Lisuride (patients with PD; 3 mg per day, patients with PD already under treatment): no significant deterioration; dose-limiting side effect (patients with PD; Phase II trials of PD): nausea |
| COCCOc1cc(OCCOC)cc(-c2nc(C)cc3cc(OC)c(OC)cc23)c1 [SDZ-MNS 949] | – | reduce dopamine depletion in the striatum | reduce loss of tyrosine hydroxylase-immunopositive neurons | stimulate uptake of dopamine | – |
